In patent US20210112813A1, “HERBICIDAL COMPOSITION AND USE THEREOF” (NANTONG JIANGSHAN AGROCHEMICAL & CHEMICALS CO., LTD., priority 2019, published 2021):

Tests used:
Format in all cases: in vivo
[1] = system: Abutilon; assay: Greenhouse pot test (treatment timing not given, Table 6), visual control effect, Gowing method
Protocol: (§1) In the present application, indoor combined action of the compound of herbicide active component A and B on weeds was measured to determine the combined effect of the composition on weeds, wherein the structure of the active component A was as follows:
(§2) The weed cultivation method was as follows: quantitative weed seeds abutilon and bristlegrass were respectively sown in a paper cup filled with nutrient soil with a diameter of 7 cm, and then cultivated in the greenhouse after covering the soil, suppressing and watering. The post-emergence stem and leaf treatment was performed when the grass weeds grew to 5-7 leaf stage, broad-leaved weeds grew to 6-8 leaf stage; the pre-emergence soil treatment was performed the second day after sowing, and the early post-emergence treatment was performed after sowing and before emergence; the experiment was repeated 3 times. After the treatment and drug solution naturally dried, the weeds were placed in the greenhouse to be managed according to conventional methods. According to the suppression or death of the weeds, a visual control effect investigation was conducted 30 days after the treatment. The application adopted the Gowing method to evaluate the combined effect of the proposed composition.
(§3) X—Weed control effect when the amount of herbicide component A is P;
(§4) Y—Weed control effect when the amount of herbicide component B is Q;
(§5) E0—Theoretical control effect when the amount of herbicide component A is […];
(§6) E—The measured control effect after the herbicide component A and the herbicide component B are mixed according to the above ratio.
(§7) When E−E0>10%, it is synergism; when E−E0<−10%, it is antagonism; when E−E0 value is between ±10%, it is addition.

[2] = system: Abutilon; assay: Field plot test, non-cultivated weeds, post-emergence stem and leaf spray; details: Table 10, dose 100 ga.i./hm^2
Protocol: (§8) The present application also conducted a medicinal efficacy test on weeds on the formulation examples containing herbicide active component A and active component B by the field plot test method, and clarified the control effect of the composition on non-cultivated weeds.
(§9) According to the different components of different formulation examples, pre-emergence soil treatment, early post-emergence and post-emergence stem and leaf spray treatment were carried out respectively. The spraying device was Singapore Linong HD400 hand-operating knapsack sprayer (No. H17001), working pressure: […], spray rate: 640 mL/min, adjustable cone spraying nozzle (325787), spraying nozzle height: 0.5 m, spray width: 0.85 m, walking speed: about 16.7 m/min, and spray volume: […];

[3] = system: Echinochloacrusgalli; assay: as above; details: Table 10, dose 100 ga.i./hm^2
Protocol: as §8, §9

[4] = system: Amaranthusretroflexus; assay: as above; details: Table 10, dose 100 ga.i./hm^2
Protocol: as §8, §9

[5] = system: Bristlegrass; assay: as above; details: Table 10, dose 100 ga.i./hm^2
Protocol: as §8, §9

[6] = system: Bristlegrass; assay: Greenhouse pot test (treatment timing not given, Tables 6 and 7), visual control effect, Gowing method
Protocol: as §1, §2, §3, §4, §5, §6, §7

[7] = system: Lambsquarters; assay: Greenhouse pot test, pre-emergence soil treatment, visual control effect 30 days after treatment, Gowing method
[8] = system: Bristlegrass; assay: as above
Protocol: as §1, §2, §3, §4, §5, §6, §7

[9] = system: Amaranthusretroflexus; assay: Field plot test, non-cultivated weeds, pre-emergence soil treatment; details: Table 8, dose 600 ga.i./hm^2
Protocol: as §8, §9

[10] = system: Lambsquarters; assay: as above; details: Table 8, dose 600 ga.i./hm^2
Protocol: as §8, §9

[11] = system: Bristlegrass; assay: as above; details: Table 8, dose 600 ga.i./hm^2
Protocol: as §8, §9

[12] = system: Crabgrass; assay: as above; details: Table 8, dose 600 ga.i./hm^2
Protocol: as §8, §9

SMILES | Measured value E ([1]; dose 30 ga.i./hm^2) [%] | Measured value E ([1]; dose 120 ga.i./hm^2) [%] | Control effect, Abutilon [2] | Control effect, Echinochloacrusgalli [3] | Control effect, Amaranthusretroflexus [4] | Control effect, Bristlegrass [5] | Measured value E ([6]; Table 6, dose 30 ga.i./hm^2) [%] | Measured value E ([6]; Table 6, dose 120 ga.i./hm^2) [%] | Measured value E ([7]; Table 2, dose 90 ga.i./hm^2) [%] | Measured value E ([7]; Table 2, dose 135 ga.i./hm^2) [%] | Measured value E ([8]; Table 2, dose 90 ga.i./hm^2) [%] | Measured value E ([8]; Table 2, dose 135 ga.i./hm^2) [%] | Control effect, Amaranthusretroflexus [9] | Control effect, Lambsquarters [10] | Control effect, Bristlegrass [11] | Control effect, Crabgrass [12]
CP(=O)(O)CCC(N)C(=O)O (stereo not shown) [Glufosinate-ammonium] | 40 | 60 | 65 | 60 | 70 | 50 | 30 | 55 | – | – | – | – | – | – | – | –
CCc1cccc(C)c1N(C(=O)CCl)[C@@H](C)COC [S-metolachlor] | – | – | – | – | – | – | – | – | 45 | 65 | 35 | 60 | 75 | 50 | 60 | 70
